Earlier results as cited in patent US12465047B2, “Preparation method for L-glufosinate-ammonium powder” (ZHEJIANG UNIVERSITY OF TECHNOLOGY, priority 2020, dated 2025).

Conditions: stated as the reason for adjusting pH to 2-2.5 in step (4)

Structure (SMILES): CP(=O)(O)CC[C@H](N)C(=O)O.N [L-glufosinate ammonium]
- isoelectric point: 2.66 pH
